Data reported in patent US9399649B2, “Compounds for treating spinal muscular atrophy” (PTC Therapeutics Inc., priority 2012, dated 2016).

Legend:
[1] = tested on: full length SMN2 minigene mRNA containing SMN2 exon 7; experiment: SMN2 minigene mRNA splicing RT-qPCR assay in cultured cells; format: cell-based, human; conditions: Homo sapiens, HEK293-H; HEK293H cells stably transfected with SMN2-A minigene, 24 hours, 7-point concentration curve; concentration giving 1.5-fold full length SMN2 mRNA vs vehicle; read-out: EC1.5x for production of full length SMN2 mRNA
Outline: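 Read-out is minigene FL mRNA (exon 7 included) relative to vehicle, from efficiency-corrected ΔΔCt with GAPDH normalisation. Primers and probe span exon 7, exon 8 and luciferase, so endogenous SMN is not detected. Stable SMN2-A minigene HEK293H cells, 24 h compound exposure at 37 °C, 7-point curve in duplicate.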

Smn protein = Smn protein assay in cultured cells (SMN HTRF); format: cell-based, human; conditions: SMA patient fibroblast cells (GM03813), 48 hours; for EC1.5x for Smn protein expression: 7-point concentration curve, concentration producing 1.5 times Smn protein vs DMSO vehicle; for maximum fold (Fold) increase of Smn protein: 7-point concentration data, relative to vehicle control
Outline: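 Smn protein measured by HTRF (anti-SMN d2/kryptate) in lysates of SMA patient fibroblasts after 48 h compound treatment, 7-point 3.16-fold dilutions, triplicates. The 665/620 nm ratio is blank-corrected to ΔF, then divided by the vehicle ΔF to give fold increase.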

SMILES | EC (1.5-fold) [1] [µM] | EC1.5x for Smn protein expression (Smn protein) | maximum fold (Fold) increase of Smn protein (Smn protein) | melting point [°C]
Cc1cn2cc(-c3cc4ccc(C5=CCN(C(C)C)CC5)cc4c(=O)o3)nc2c(C)n1 [Cpd 91, 3-(6,8-dimethylimidazo[1,2-a]pyrazin-2-yl)-7-[1-(propan-2-yl)-1,2,3,6-tetrahydropyridin-4-yl]-1H-isochromen-1-one] | ≤ 0.1 | *** (an EC1.5× between >0.3 nM and ≦1 nM is indicated by three stars (***)) | *** (a fold increase between >1.35 and ≦1.5 is indicated by three stars (***)) | 259 to 261
COc1ccc(-c2cc3ccc(N4C[C@@H](C)N[C@@H](C)C4)cc3c(=O)o2)cc1 [Cpd 29, 7-[(3R,5S)-3,5-dimethylpiperazin-1-yl]-3-(4-methoxyphenyl)-1H-isochromen-1-one] | 0.3 to 1 |  | * (A maximum fold increase of ≦1.2 is indicated by one star (*)) | 109 to 110
Cc1nc(Cl)cn2cc(-c3cc4ccc(N5CCN(C)[C@H](C)C5)cc4c(=O)o3)nc12 [Cpd 111, 3-(6-chloro-8-methylimidazo[1,2-a]pyrazin-2-yl)-7-[(3R)-3,4-dimethylpiperazin-1-yl]-1H-isochromen-1-one] | 0.1 to 0.3 | *** (an EC1.5× between >0.3 nM and ≦1 nM is indicated by three stars (***)) | ***** (a fold increase >1.65 is indicated by five stars (*****)) | 271 to 276
COc1ccc(-c2cc3ccc(N4CCN(C)CC4)cc3c(=O)o2)cc1 [Cpd 25, 3-(4-methoxyphenyl)-7-(4-methylpiperazin-1-yl)-1H-isochromen-1-one] | 1 to 3 |  | * (A maximum fold increase of ≦1.2 is indicated by one star (*)) | 166 to 168
CCN1[C@H](C)CN(c2ccc3cc(-c4cn5cc(C)ncc5n4)oc(=O)c3c2)C[C@@H]1C [Cpd 129, 7-[(3R,5S)-4-ethyl-3,5-dimethylpiperazin-1-yl]-3-(6-methylimidazo[1,2-a]pyrazin-2-yl)-1H-isochromen-1-one] | ≤ 0.1 | **** (an EC1.5×≦0.3 nM is indicated by four stars (****)) | ***** (a fold increase >1.65 is indicated by five stars (*****)) | 233 to 238
COc1ccc(-c2cc3ccc(N4CCNCC4)cc3c(=O)o2)cc1OC [Cpd 3, 3-(3,4-dimethoxyphenyl)-7-(piperazin-1-yl)-1H-isochromen-1-one] | ≤ 0.1 | *** (an EC1.5× between >0.3 nM and ≦1 nM is indicated by three stars (***)) | **** (a fold increase between >1.5 and ≦1.65 is indicated by four stars (****)) | 142 to 143
COc1cccc(-c2cc3ccc(N4CCNCC4)cc3c(=O)o2)c1 [Cpd 18, 3-(3-methoxyphenyl)-7-(piperazin-1-yl)-1H-isochromen-1-one] | 0.3 to 1 |  | * (A maximum fold increase of ≦1.2 is indicated by one star (*)) | 140 to 142
Cc1nc(Cl)cn2cc(-c3cc4ccc(N5CCN(C(C)C)CC5)cc4c(=O)o3)nc12 [Cpd 101, 3-(6-chloro-8-methylimidazo[1,2-a]pyrazin-2-yl)-7-[4-(propan-2-yl)piperazin-1-yl]-1H-isochromen-1-one] | 0.1 to 0.3 | *** (an EC1.5× between >0.3 nM and ≦1 nM is indicated by three stars (***)) | ***** (a fold increase >1.65 is indicated by five stars (*****)) | 286 to 291
COc1ccc(F)cc1-c1cc2ccc(N3CCN[C@@H](C)C3)cc2c(=O)o1 [Cpd 48, 3-(5-fluoro-2-methoxyphenyl)-7-[(3S)-3-methylpiperazin-1-yl]-1H-isochromen-1-one] | 0.3 to 1 |  | * (A maximum fold increase of ≦1.2 is indicated by one star (*)) | 115 to 117
COc1ccc(-c2cc3ccc(N4CCN[C@@H](C)C4)cc3c(=O)o2)cc1F [Cpd 43, 3-(3-fluoro-4-methoxyphenyl)-7-[(3S)-3-methylpiperazin-1-yl]-1H-isochromen-1-one] | ≤ 0.1 | **** (an EC1.5×≦0.3 nM is indicated by four stars (****)) | *** (a fold increase between >1.35 and ≦1.5 is indicated by three stars (***)) | 209 to 211
Cc1cn2cc(-c3cc4ccc(C5=CCN(C)CC5)cc4c(=O)o3)nc2c(C)n1 [Cpd 89, 3-(6,8-dimethylimidazo[1,2-a]pyrazin-2-yl)-7-(1-methyl-1,2,3,6-tetrahydropyridin-4-yl)-1H-isochromen-1-one] | ≤ 0.1 | **** (an EC1.5×≦0.3 nM is indicated by four stars (****)) | **** (a fold increase between >1.5 and ≦1.65 is indicated by four stars (****)) | 240 to 242
Cc1cn2cc(-c3cc4ccc(N5CCN(CCO)CC5)cc4c(=O)o3)nc2c(C)n1 [Cpd 75, 3-(6,8-dimethylimidazo[1,2-a]pyrazin-2-yl)-7-[4-(2-hydroxyethyl)piperazin-1-yl]-1H-isochromen-1-one] | ≤ 0.1 | *** (an EC1.5× between >0.3 nM and ≦1 nM is indicated by three stars (***)) | ***** (a fold increase >1.65 is indicated by five stars (*****)) | 248 to 250
COc1cccc(-c2cc3ccc(N4CCN(C)CC4)cc3c(=O)o2)c1 [Cpd 19, 3-(3-methoxyphenyl)-7-(4-methylpiperazin-1-yl)-1H-isochromen-1-one] | 3 to 30 |  | * (A maximum fold increase of ≦1.2 is indicated by one star (*)) | 140 to 142
Cc1cn2cc(-c3cc4ccc(N5CCN6CCC[C@@H]6C5)cc4c(=O)o3)nc2cn1 [Cpd 68, 7-[(8aR)-hexahydropyrrolo[1,2-a]pyrazin-2(1H)-yl]-3-(6-methylimidazo[1,2-a]pyrazin-2-yl)-1H-isochromen-1-one] | ≤ 0.1 | * (An EC1.5× for Smn protein expression between >3 μM and <10 μM is indicated by one star (*)) | **** (a fold increase between >1.5 and ≦1.65 is indicated by four stars (****)) | 255 to 257
Cc1nc2ccc(-c3cc4ccc(N5CCN(C)CC5)cc4c(=O)o3)cc2s1 [Cpd 104, 3-(2-methyl-1,3-benzothiazol-6-yl)-7-(4-methylpiperazin-1-yl)-1H-isochromen-1-one] | 0.1 to 0.3 |  | *** (a fold increase between >1.35 and ≦1.5 is indicated by three stars (***)) | 231 to 236
C[C@H]1CN(c2ccc3cc(-c4cccc(O)c4)oc(=O)c3c2)CCN1 [Cpd 44, 3-(3-hydroxyphenyl)-7-[(3S)-3-methylpiperazin-1-yl]-1H-isochromen-1-one] | 3 to 30 |  | ** (a fold increase between >1.2 and ≦1.35 is indicated by two stars (**)) | 256 to 258
